Article PMC11604427 (Frontiers in Pharmacology, 2024)

Columns and labels:
[1] = target: T1, Human recombinant HDAC2 enzyme (Homo sapiens, UniProt Q92769); test: HDAC2 fluorescence enzyme inhibition assay (Boc-Lys(acetyl)-AMC); format: biochemical
T1 construct: purchased Abcam
Protocol: Firstly, a 96-well plate was loaded with a blend comprising 10 μL of HDAC2 enzyme solution and 50 μL of the test compounds at assorted concentrations, followed by incubation at a temperature of 37°C for a duration of 5 min. Subsequently, 10 μL of the fluorescent substrate Boc-Lys (acetyl)-AMC was added and continued for 30 min. Finally, 100 μL of developer containing trypsin and TSA was injected into each well and incubated for 20 min.

[2] = system: Hep3B; test: MTT assay; format: cell-based; details: Homo sapiens, 48 h, read-out: IC50 (μM) ± SD Hep3B
Protocol: (§1) Cells at a density of 4×10^3 cells/well were inoculated into 96-well plates for overnight culture at 37°C. […] Then, 100 μL of a 0.5 mg/mL MTT solution was pipetted into each well, and the incubation was prolonged for 4 h, resulting in the formation of a purple precipitate. Afterward, 200 μL of DMSO was added to each well, and the plate was vortexed for 10 min. The absorbance at 570 nm was determined with a Synergy 4 microplate reader (BioTek, United States). Each experiment was performed three times under the same conditions.

[3] = system: HepG2/MDR; test: MTT assay; format: cell-based; details: Homo sapiens, multidrug-resistant HepG2/MDR, 48 h, read-out: IC50 (μM) ± SD HepG2/MDR
Protocol: as §1

[4] = system: HepG2; test: MTT assay; format: cell-based; details: Homo sapiens, HepG2, 48 h, read-out: IC50 (μM) ± SD HepG2
Protocol: as §1

[5] = system: Huh7; test: MTT assay; format: cell-based; details: Homo sapiens, Huh-7, Huh7, 48 h, read-out: IC50 (μM) ± SD Huh7
Protocol: as §1

[6] = system: SNU449; test: MTT assay; format: cell-based; details: Homo sapiens, SNU-449, SNU449, 48 h, read-out: IC50 (μM) ± SD SNU449
Protocol: as §1

[7] = system: normal human liver cell line L02; test: MTT assay; format: cell-based; details: normal liver cell line L02, 48 h
Protocol: as §1

[8] = system: HCC cell lines; test: MTT assay, all HCC cell lines; format: cell-based; details: Homo sapiens, range over HepG2, Hep3B, Huh7, SNU449, HepG2/MDR, 48 h, read-out: IC50 values against all HCC cell lines
Protocol: The MTT assay was conducted to evaluate the inhibitory impact of PKHD-5 on HCC cells, HepG2/ADR cells, and normal liver cells ([Ding et al., 2020]). Cells at a density of 4×10^3 cells/well were inoculated into 96-well plates for overnight culture at 37°C. The cells were treated with varying concentrations of the test compounds and incubated for 48 h. Then, 100 μL of a 0.5 mg/mL MTT solution was pipetted into each well, and the incubation was prolonged for 4 h, resulting in the formation of a purple precipitate. Afterward, 200 μL of DMSO was added to each well, and the plate was vortexed for 10 min. The absorbance at 570 nm was determined with a Synergy 4 microplate reader (BioTek, United States). Each experiment was performed three times under the same conditions.

[9] = system: HepG2 cells; test: Western blot of apoptosis markers; format: cell-based, human
Protocol: To evaluate the protein levels of apoptosis-associated markers, we performed Western blot analysis on cell extracts as previously reported ([Hao et al., 2018]). Briefly, equal amounts of protein were subjected to SDS-PAGE and then transferred onto a polyvinylidene fluoride (PVDF) membrane. The membrane was incubated in a blocking solution consisting of 5% non-fat dry milk in Tris-buffered saline with Tween-20 (TBS-T) for 3 h at room temperature. Subsequently, the membrane was probed with primary antibodies specific to cleaved PARP and cleaved caspase-3 overnight at 4°C. After washing, the membrane was incubated with horseradish peroxidase-conjugated secondary antibodies for 1 h at room temperature. Immunoreactive bands were visualized using a chemiluminescent substrate (ECL, Pierce Technology). The relative expression levels of cleaved PARP and cleaved caspase-3 were quantified.

[10] = system: HepG2 cells; test: RT-PCR analysis; format: cell-based, human
Protocol: Total RNA was extracted from cells using Trizol reagent (Invitrogen, Carlsbad, CA) and reverse transcribed into cDNA with the PrimeScript RT reagent kit (Takara Bio, Otsu, Japan). RT-PCR was performed on the Mx3000P system (Agilent Technologies, Santa Clara, CA) with TB Green Premix Ex Taq II (Takara Bio). Relative gene expression was determined by the 2^−ΔΔCt method.

[11] = system: HepG2 xenograft; test: HepG2 bearing xenograft model; format: in vivo, BALB/c nude mice; details: versus vehicle
Source text: A previously reported human tumor xenograft model was established to evaluate the anti-tumor effects of PKHD-5 in vivo ([Zhou et al., 2022]). All procedures involving animals were granted approval by the Ethics Committee at China Pharmaceutical University. A total of 20 male BALB/c nude mice (6 weeks old) were purchased from Changzhou Cave Experimental Animal Co., Ltd. (Changzhou, China). Mice were maintained under specific pathogen-free (SPF) conditions, with environmental parameters meticulously controlled at a temperature of 25°C ± 2°C, relative humidity maintained at 50% ± 5%, and an established diurnal cycle of 12 h for both light and darkness. During the experiment, all mice were free to access water and food. After 10 days of adaptive feeding, HepG2 cells (1×10^7 cells) were subcutaneously injected into mice. Once the tumors reached a size of 90–120 mm^3, the nude mice were randomly assigned to either the vehicle control group or the group treated with PKHD-5 (n = 5). Furthermore, the treatment was divided into three dose-based groups of 1, 5, and 10 mg/kg. The tumor volume was measured by a digital caliper for a total of 18 days and calculated by the following formula: (c×c×d)/2, where c represents the minimum diameter of the tumor and d indicates the maximum diameter. In addition, the body weight of the mice was measured and recorded every 3 days.

[12] = target: 63 distinct kinases; test: SelectScreen kinase selectivity assay, whole panel; format: biochemical; details: read-out: IC50 values for each of the 63 kinases
Protocol: The kinase selectivity analysis of PKHD-5 was performed using the SelectScreen kinase analysis service provided by Thermo Fisher Scientific. The experiment initially involved the preparation of a series of inhibitor solutions at varying concentrations, which were then reacted with various kinase targets under standardized conditions to calculate the percentage inhibition for each test solution. Ultimately, the IC50 values were calculated based on the concentration-inhibition curves by fitting a four-parameter logistic curve, thereby assessing the potency and selectivity of the inhibitors. The analysis results are detailed in Supplementary Table S1.

T1 sequence (Q92769 whole entry): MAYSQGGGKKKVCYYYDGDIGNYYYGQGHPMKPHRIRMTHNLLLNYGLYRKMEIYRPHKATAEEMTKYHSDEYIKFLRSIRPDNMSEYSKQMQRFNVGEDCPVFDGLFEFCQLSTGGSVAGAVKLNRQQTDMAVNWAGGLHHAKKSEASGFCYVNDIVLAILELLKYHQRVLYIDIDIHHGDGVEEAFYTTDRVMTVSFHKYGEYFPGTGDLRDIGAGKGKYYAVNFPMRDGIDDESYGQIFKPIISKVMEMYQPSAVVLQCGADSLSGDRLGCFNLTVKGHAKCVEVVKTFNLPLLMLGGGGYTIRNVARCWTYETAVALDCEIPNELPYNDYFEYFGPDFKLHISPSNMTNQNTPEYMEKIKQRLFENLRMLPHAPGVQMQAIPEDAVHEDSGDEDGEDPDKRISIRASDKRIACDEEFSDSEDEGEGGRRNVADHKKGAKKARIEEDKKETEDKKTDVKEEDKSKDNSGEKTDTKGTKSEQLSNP

## Cc1ccc(O)c(C)c1-n1c(N)c(C(N)=O)c2cc(CCCCCC(=O)NO)c(C)nc21 [PKHD-5]
[1]; fluorescence signal-based method
  IC50: 0.00228 ± 0.00013 µM
[1]; ratio of IC50 values versus SAHA
  fold inhibition of HDAC2 compared with SAHA: 4.42 fold
[2]
  IC50: 0.38 ± 0.05 µM
[3]
  IC50: 0.92 ± 0.05 µM
[4]
  IC50: 0.19 ± 0.03 µM
[5]
  IC50: 0.47 ± 0.04 µM
[6]
  IC50: 0.59 ± 0.06 µM
[7]
  IC50: > 100 µM
[8]
  IC50: 0.19 to 0.92 µM
[9]
  levels of cleaved PARP: increased levels
  levels of cleaved caspase-3: increased levels
[10]
  expression of histone H3 acetylation: upregulated
  expression of p21: upregulated
[11]; HepG2 xenograft mice
  body weight changes in mice: did not exhibit any significant disparities
[11]; HepG2 xenograft, intraperitoneal 1, 5, 10 mg/kg, 18 days
  rate at which tumors grew (tumor volume): considerably lower
[12]
  IC50: > 50 µM
